# Where “and” joins values, the source holds several entries; their conditions need not be identical. Equal entries are not always repeated. Structures can show the parent of a compound that is named as a salt.
# Tested on: dopamine release in the rat prefrontal cortex
# Assay: Microdialysis: dopamine release in prefrontal cortex after I.P. administration
# Assay type: in vivo
# Details: for DOPAMINE (% of respective basal), individual animal: 0.1 mg/kg I.P., c2-c9 = R#13,14,20,19,25,26,31,32; for DOPAMINE (% of respective basal), individual animal / Dopamine release, individual animals: hydrochloride; for Dopamine release, MEAN / Dopamine release, individual animals: 0.3 mg/kg I.P.; for Dopamine release, MEAN: n = 8; for Dopamine release, individual animals: one column per animal R#11,12,18,23,29,30,17,24
# Protocol: The aim of the study was to evaluate, using microdialysis, the effects of an intraperitoneal (I.P.) administration in rats of three different doses of SON-117 on dopamine and its metabolites, serotonin and its metabolite (5-HIAA), and norepinephrine levels in prefrontal cortex.
# Thirty-two adult male Wistar rats were used for the whole study (4 groups of eight animals planned for the study, Table 1).
# Surgery was performed on rats weighing about 300 g at the beginning of the experiments. Rats were anaesthetized with Ketamine (50 mg/kg) & Xylazine (15 mg/kg) by intramuscular administration. The animals were placed in a stereotaxic apparatus in the flat-skull position at a constant setting of −3.3 mm between ear bars and the incisor bar. The animals were treated with a local anesthesic (xylocaine 1%, Astra Zeneca) and an analgesic (Temgesic, from Schering Plough, 0.05 mg/kg, s.c.). A rostrocaudal midline incision was made with a lancet to expose the dorsal skull surface. The “stereotaxic zero” was defined by the Bregma in accordance with Paxinos and Watson's atlas (1986). A hole was drilled in the skull with a drill and the meninges were pierced with a sterile needle to implant a CMA12 guide cannula which later received the dialysis probe.
# Coordinates used for implanting guide cannula in prefrontal cortex from Bregma were anteroposterior 3.7 mm, mediolateral 0.8 mm, and dorsoventral −2 mm (top of the probe was at −5 mm). The guide cannula was fixed to the skull with two stainless steel screws (1.88 mm outside diameter) anchored. An application of dental cement was added. A plastic collar allowed each animal to be tethered to a Swivel assembly of the CMA 120 awake animal system. Following surgery, rats were kept in individual cages and allowed to recover for a minimum of 3-5 days before the experimentation. The rats were handled and put in plastic bowl for 10 min at least every day to habituate the animals to their new environment for the dialysis. An I.P. administration with saline was also performed every day.
# Dialysis probes (CMA12/3 mm, membrane, 20 kD cut-off, Carnegie Medicine, Stockholm, Sweden), were carefully washed before inserting into the guide cannula. The wash was performed with the artificial cerebrospinal fluid (aCSF) medium (NaCl 147 mM, KCl 2.7 mM, CaCl2 1.2 mM, MgCl2 0.85 mM) at room temperature. The dialysis system was then equilibrated at 20° C. at a perfusion rate of 1 μl/min with a Carnegie pump (CMA100). All catheters (FEP tubing, internal volume of 1.2 μl/10 cm, and tubing adaptors) used for microdialysis were treated in the same conditions.
# The probes duly prepared were inserted into the guide cannula and the CMA120 Swivel assembly secured to the animal using a plastic collar. Flow through the dialysis probe with aCSF was maintained at a rate of 1 μl/min during the whole experimentation. The first four fractions (corresponding to 2 hours) were discarded to avoid the effects of parenchymal disturbance and to ensure that an approximate steady-state level was reached. Fractions were then collected over a period of 8.5 h during which time the animals remained quiet. The dialysates were automatically collected with an autosampler (microfraction collector CMA 140, Carnegie Medicin) and stored at −80° C. until analysis. […] Perfusion was then maintained for 7 hours with aCSF. The dialysates (30 μl) were collected into 300 μl vials, transferred into dry ice and then kept frozen (−80° C.) until analysis. Frozen samples were shipped to a partner for analysis. At the end of the microdialysis study, a PBS with colored ink was perfused through the probe in order to visualize the dialyzed area.
# Catecholamine assay: Concentrations of dopamine, DOPAC, HVA, 5-HIAA, 5-HT, and norepinephrin were determined for each sample by HPLC coupled with electrochemical detection.
compound,measurement,setting,value
"Cc1nnc(-c2cc3c(OC[C@@H](O)CN4CCC(c5ccc(Cl)c(Cl)c5)CC4)cccc3o2)o1 [SON-117, (S)-1-(4-(3,4-dichlorophenyl)piperidino)-3-(2-(5-methyl-1,3,4-oxadiazol-2-yl)benzo(b)furan-4-yloxy)-2-propanol hydrochloride]","DOPAMINE (% of respective basal), individual animal",T30-T1 h,78.42 % of respective basal and 144.00 % of respective basal and 128.77 % of respective basal and 71.43 % of respective basal and 151.01 % of respective basal and 47.86 % of respective basal and 101.52 % of respective basal
same,"DOPAMINE (% of respective basal), individual animal",T1 h 30-T2 h,36.00 % of respective basal and 142.72 % of respective basal and 334.21 % of respective basal and 140.61 % of respective basal and 189.68 % of respective basal and 109.22 % of respective basal and 110.24 % of respective basal
same,"DOPAMINE (% of respective basal), individual animal",T1 h-T1 h 30,48.68 % of respective basal and 33.57 % of respective basal and 218.55 % of respective basal and 176.05 % of respective basal and 99.52 % of respective basal and 198.57 % of respective basal and 106.01 % of respective basal and 103.54 % of respective basal
same,"DOPAMINE (% of respective basal), individual animal",T2 h 30-T3 h,23.71 % of respective basal and 100.08 % of respective basal and 315.3 % of respective basal and 95.2 % of respective basal and 171.39 % of respective basal and 293.73 % of respective basal and 72.19 % of respective basal and 35.99 % of respective basal
same,"DOPAMINE (% of respective basal), individual animal",T2 h-T2 h 30,84.44 % of respective basal and 172.82 % of respective basal and 179.35 % of respective basal and 87.73 % of respective basal and 1288.95 % of respective basal and 305.56 % of respective basal and 131.13 % of respective basal and 45.72 % of respective basal
same,"DOPAMINE (% of respective basal), individual animal",T3 h 30-T4 h,23.36 % of respective basal and 145.75 % of respective basal and 464.25 % of respective basal and 43.13 % of respective basal and 194.11 % of respective basal and 295.73 % of respective basal and 45.38 % of respective basal and 34.94 % of respective basal
same,"DOPAMINE (% of respective basal), individual animal",T3 h-T3 h 30,40.16 % of respective basal and 117.963 % of respective basal and 93.88 % of respective basal and 47.74 % of respective basal and 225.34 % of respective basal and 586.07 % of respective basal and 48.38 % of respective basal and 40.61 % of respective basal
same,"DOPAMINE (% of respective basal), individual animal",T4 h 30-T5 h,196.31 % of respective basal and 152.43 % of respective basal and 409.91 % of respective basal and 45.90 % of respective basal and 293.48 % of respective basal and 662.65 % of respective basal and 73.568 % of respective basal and 92.51 % of respective basal
same,"DOPAMINE (% of respective basal), individual animal",T4 h-T4 h 30,91.54 % of respective basal and 75.24 % of respective basal and 423.55 % of respective basal and 28.53 % of respective basal and 308.40 % of respective basal and 676.86 % of respective basal and 63.428 % of respective basal and 58.94 % of respective basal
same,"DOPAMINE (% of respective basal), individual animal",T5 h 30-T6 h,107.62 % of respective basal and 109.11 % of respective basal and 218.37 % of respective basal and 42.54 % of respective basal and 135.41 % of respective basal and 709.30 % of respective basal and 42.94 % of respective basal and 140.37 % of respective basal
same,"DOPAMINE (% of respective basal), individual animal",T5 h-T5 h 30,110.75 % of respective basal and 148.81 % of respective basal and 228.76 % of respective basal and 47.98 % of respective basal and 200.12 % of respective basal and 601.17 % of respective basal and 21.81 % of respective basal and 112.11 % of respective basal
same,"DOPAMINE (% of respective basal), individual animal",T6 h 30-T7 h,78.29 % of respective basal and 188.44 % of respective basal and 933.712 % of respective basal and 63.21 % of respective basal and 1205.29 % of respective basal and 126.67 % of respective basal
same,"DOPAMINE (% of respective basal), individual animal",T6 h-T6 h 30,130.81 % of respective basal and 238.5 % of respective basal and 88.84 % of respective basal and 62.29 % of respective basal and 146.28 % of respective basal and 882.60 % of respective basal and 95.56 % of respective basal and 166.52 % of respective basal
same,"Dopamine release, MEAN",T0-T30 min,128.24 % of respective basal
same,"Dopamine release, MEAN",T30-T1 h,131.35 % of respective basal
same,"Dopamine release, individual animals",T30-T1 h,103.18 % of respective basal and 54.05 % of respective basal and 146.65 % of respective basal and 93.66 % of respective basal and 168.96 % of respective basal and 281.64 % of respective basal and 59.20 % of respective basal and 143.48 % of respective basal
same,"Dopamine release, MEAN",T1 h 30-T2 h,90.06 % of respective basal
same,"Dopamine release, individual animals",T1 h 30-T2 h,91.90 % of respective basal and 29.89 % of respective basal and 33.64 % of respective basal and 64.84 % of respective basal and 106.30 % of respective basal and 119.82 % of respective basal and 81.21 % of respective basal and 192.86 % of respective basal
same,"Dopamine release, MEAN",T1 h-T1 h 30,94.40 % of respective basal
same,"Dopamine release, individual animals",T1 h-T1 h 30,50.19 % of respective basal and 44.28 % of respective basal and 51.46 % of respective basal and 70.10 % of respective basal and 123.34 % of respective basal and 256.96 % of respective basal and 56.09 % of respective basal and 102.79 % of respective basal
same,"Dopamine release, MEAN",T2 h 30-T3 h,95.29 % of respective basal
same,"Dopamine release, individual animals",T2 h 30-T3 h,53.62 % of respective basal and 111.85 % of respective basal and 131.64 % of respective basal and 82.81 % of respective basal and 130.53 % of respective basal and 91.04 % of respective basal and 42.56 % of respective basal and 118.24 % of respective basal
same,"Dopamine release, MEAN",T2 h-T2 h 30,112.22 % of respective basal
same,"Dopamine release, individual animals",T2 h-T2 h 30,78.18 % of respective basal and 201.28 % of respective basal and 102.58 % of respective basal and 57.76 % of respective basal and 140.27 % of respective basal and 171.47 % of respective basal and 131.71 % of respective basal and 14.48 % of respective basal
same,"Dopamine release, MEAN",T3 h 30-T4 h,131.87 % of respective basal
same,"Dopamine release, individual animals",T3 h 30-T4 h,348.64 % of respective basal and 164.63 % of respective basal and 39.78 % of respective basal and 87.76 % of respective basal and 122.97 % of respective basal and 30.76 % of respective basal and 128.55 % of respective basal
same,"Dopamine release, MEAN",T3 h-T3 h 30,133.65 % of respective basal
same,"Dopamine release, individual animals",T3 h-T3 h 30,263.92 % of respective basal and 284.14 % of respective basal and 32.71 % of respective basal and 88.53 % of respective basal and 186.05 % of respective basal and 14.29 % of respective basal and 65.93 % of respective basal
same,"Dopamine release, MEAN",T4 h 30-T5 h,99.61 % of respective basal
same,"Dopamine release, individual animals",T4 h 30-T5 h,204.04 % of respective basal and 138.52 % of respective basal and 77.42 % of respective basal and 28.77 % of respective basal and 97.45 % of respective basal and 26.06 % of respective basal and 62.98 % of respective basal and 161.60 % of respective basal
same,"Dopamine release, MEAN",T4 h-T4 h 30,126.41 % of respective basal
same,"Dopamine release, individual animals",T4 h-T4 h 30,99.34 % of respective basal and 210.06 % of respective basal and 195.26 % of respective basal and 40.10 % of respective basal and 119.18 % of respective basal and 52.10 % of respective basal and 159.91 % of respective basal and 135.30 % of respective basal
same,"Dopamine release, MEAN",T5 h 30-T6 h,263.98 % of respective basal

# Reference: patent US20250109127A1, “METHODS OF USE OF PHENOXYPROPYLAMINE COMPOUNDS TO TREAT DEPRESSION” (Minerva Neurosciences, Inc., priority 2013, published 2025)
